According to publication PMC11664589, “A Versatile “Synthesis Tag” (SynTag) for the Chemical Synthesis of Aggregating Peptides and Proteins” (Journal of the American Chemical Society, 2024):
Starred links: 1 amine or outer side, 2 acyl side, 3 side chain; linkers in the order of their positions; H or OH if unused. Non-standard residues stand in square brackets, D forms with d. Residues, ends and D or L forms follow the SMILES beside them. No end group written: not given here. X1 = C[C@H](N[*:1])C(=O)n1c(=O)n(C)c2ccc(C(=O)[*:2])cc21

Experiments:
[1] = UHPLC elution as indicator of hydrophilicity; type: physicochemical; settings: standard UHPLC conditions, 214 nm; with versus without SynTag
[2] = once synthesized; cited from earlier work
From the text: Amyloid-β is a biologically relevant peptide that is investigated for its role in Alzheimer’s disease (Figure 5D). The peptide is notoriously difficult to synthesize because it severely aggregates at the very beginning of the synthesis (i.e., residues 27–42).

| hydrophilicity by UHPLC elution / peak shape (in words) [1] | Molecule | solubility (in words) [2] |
| --- | --- | --- |
| increased hydrophilicity | CC[C@H](C)[C@H](NC(=O)[C@H](C)NC(=O)CNC(=O)[C@@H](N)CCCCN)C(=O)N[C@H](C(=O)NCC(=O)N[C@@H](CC(C)C)C(=O)N[C@@H](CCSC)C(=O)N[C@H](C(=O)NCC(=O)NCC(=O)N[C@H](C(=O)N[C@H](C(=O)N[C@H](C(=O)N[C@@H](C)C(=O)n1c(=O)n(C)c2ccc(C(=O)N[C@@H](CCCNC(=N)N)C(=O)N[C@@H](CCCNC(=N)N)C(=O)N[C@@H](CCCNC(=N)N)C(=O)N[C@@H](CCCNC(=N)N)C(=O)N[C@@H](CCCNC(=N)N)C(=O)N[C@@H](CCCNC(=N)N)C(N)=O)cc21)[C@@H](C)CC)C(C)C)C(C)C)C(C)C)[C@@H](C)CC [Aβ42[27–42]-SynTag] (H-KGAIIGLMVGGVVI[X1]RRRRRR-NH2) | – |
| – | Amyloid-β: biologically relevant peptide investigated for its role in Alzheimer’s disease | barely soluble |
| elutes later than Aβ42[27–42]-MeNbz-Arg6 | KGAIIGLMVGGVVIA-NH2 [Aβ42[27–42]] | – |
